Measurements published in patent US8957074B2 (Novartis AG, priority 2010, dated 2015).
Like-named read-outs stand apart in the source and are kept apart here.

Columns and labels:
[1] = system: phosphorylation of pRb at the Ser780 site in JeKo-1 mantle cell lymphoma cells; assay: CDK4 cellular assay: ELISA of pRb phosphorylation at Ser780 in JeKo-1 cells; assay type: cell-based
From the text: Cell-based assay measuring phosphorylation levels of pRb at the Ser780 site using an enzyme-linked immunosorbent assay (ELISA) method (Table 6). JeKo-1, a mantle-cell lymphoma cell line, was selected for use in this assay due to its known translocation and subsequent overexpression of cyclin D1. [Ref: Amin, H. M.; McDonnell, T. J.; Medeiros, L. J.; Rassidakis, G. Z.; Leventaki, V.; O'Connor, S. L.; Keating, M. J.; Lai, R. Characterization of 4 mantle cell lymphoma cell lines—Establishment of an in vitro study model. Arch. Pathol. Lab.
Cells were allowed to adhere overnight. […] 10 μL of the dilution were then transferred to the cell culture plate, resulting in a final concentration range of 10 μM to 2 nM. The incubation was carried out at 37° C. with 5% CO2. All compounds were tested in triplicates at each concentration. […] The plates were placed at 4° C. with vigorous shaking for 5 min to lyse the cells. The resulting lysates contained approximately 1 μg/μL of protein.
Plates were incubated overnight at 4° C. with rocking. […] After shaking for 10 minutes, the Superblock solution was replaced with fresh Superblock and plates were incubated on a shaker for an additional 50 min. After blocking, 30 μL of JeKo-1 cell lysate, containing approximately 10 μg total protein, were added to wells in triplicate. […] For all incubation steps, plates were covered with Uniseal plate sealers. […] Next, 50 μL of a 1:2500 dilution of donkey-anti-rabbit HRP (Promega catalog no. W401B) in PBS/10% Superblock were added, and plates were incubated for 30 min at room temperature on a shaker. Plates were again washed as described above. […] After incubation, 50 μL 2 M sulfuric acid were added to plates to top the reaction, and absorbance was determined on a SpectraMax (Molecular Devices, Sunnydale, Calif.) within 15 minutes at 450 nm. All washes were performed using a Bio-Tek plate washer.
The Total Rb ELISA kit (Invitrogen catalog no. KH00011) was used to determine the levels of total pRb. This kit uses wells precoated with a proprietary total pRb antibody for capture. All reagents listed, with the exception of cell lysate, were included in the kit. The nature of the antibodies used for capture and detection was labeled as proprietary and not disclosed. 10 μg of cell lysate was loaded into the wells and volume adjusted to 50 μL with standard dilution buffer. Plates were sealed with film included in the kit and incubated for 2 h at room temperature on a shaker. Plates are then manually washed three times with 250 μL wash buffer. 50 μL of proprietary primary antibody (pre-conjugated to biotin) was added to wells and incubated for 1 h at room temperature on a shaker. Then plates were again washed as noted above. The secondary antibody (HRP pre-conjugated to Streptavidin) was diluted 1:100 in Streptavidin-HRP diluent buffer and 50 μL was added to each well. Plates were then incubated for 30 min. Afterwards, plates were washed four times with buffer as outlined above. Finally, 50 μL stabilized Chromogen was added per well and plates were incubated for 15 min, at which point 50 μL of stop solution was added. Plates were then read on a Spectramax at 450 nm.
The total pRb levels were then used to adjust the p-pRb % inhibition values to account for any loss of signal due to the absence of the pRb protein itself, and the IC50 values obtained from the adjusted % inhibitions represent normalized cellular p-pRb IC50.

[2] = target: CDK1/cyclin B (Homo sapiens (Human), UniProt P06493); assay: CDK1/cyclin B enzymatic activity assay (IMAP-FP); assay type: biochemical; conditions: […] CDK1/cyclin B, 100 nM Tamra Histone-H1 peptide, 20 μM ATP, 120 min at room temperature; read-out: Biochemical CDK1 enzyme IC50
CDK1/cyclin B, sequence (P06493 whole entry, species assumed): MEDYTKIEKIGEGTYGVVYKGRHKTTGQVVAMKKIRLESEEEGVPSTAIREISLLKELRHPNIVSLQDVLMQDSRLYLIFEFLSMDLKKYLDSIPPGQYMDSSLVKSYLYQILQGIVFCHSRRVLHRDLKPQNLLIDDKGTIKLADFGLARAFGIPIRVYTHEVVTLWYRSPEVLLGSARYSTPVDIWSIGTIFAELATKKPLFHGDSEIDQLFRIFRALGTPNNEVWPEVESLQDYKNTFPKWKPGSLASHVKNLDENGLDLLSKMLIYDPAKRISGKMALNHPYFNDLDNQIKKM
CDK1/cyclin B, sequence (P14635 whole entry partner, species assumed): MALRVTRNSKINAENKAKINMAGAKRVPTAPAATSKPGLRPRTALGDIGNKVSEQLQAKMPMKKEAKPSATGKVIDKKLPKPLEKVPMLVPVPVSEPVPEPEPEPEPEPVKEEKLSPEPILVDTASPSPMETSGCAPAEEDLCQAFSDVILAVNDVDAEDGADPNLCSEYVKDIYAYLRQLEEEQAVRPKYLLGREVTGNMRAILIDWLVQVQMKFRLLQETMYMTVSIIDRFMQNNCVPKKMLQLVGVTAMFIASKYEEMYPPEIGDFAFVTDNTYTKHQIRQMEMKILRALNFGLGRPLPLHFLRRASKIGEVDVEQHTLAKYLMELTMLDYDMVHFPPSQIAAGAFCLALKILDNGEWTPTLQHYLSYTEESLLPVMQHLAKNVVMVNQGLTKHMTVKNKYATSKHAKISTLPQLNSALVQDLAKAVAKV
From the text: CDK1/Cyclin B Enzymatic Activity Assay
A 384-well microtiter IMAP-FP™ (Molecular Devices Trade Mark Technology) endpoint assay was used for CDK1/cyclin B kinase activity measurements. The same assay was used for IC50 determination of small molecule inhibitors.

[3] = target: CDK4/cyclin D1 (Homo sapiens (Human), UniProt P11802); assay: CDK4/cyclin D1 enzymatic activity assay (TR-FRET, phosphorylation of pRb at Ser780); assay type: biochemical
CDK4/cyclin D1, sequence (P11802 whole entry): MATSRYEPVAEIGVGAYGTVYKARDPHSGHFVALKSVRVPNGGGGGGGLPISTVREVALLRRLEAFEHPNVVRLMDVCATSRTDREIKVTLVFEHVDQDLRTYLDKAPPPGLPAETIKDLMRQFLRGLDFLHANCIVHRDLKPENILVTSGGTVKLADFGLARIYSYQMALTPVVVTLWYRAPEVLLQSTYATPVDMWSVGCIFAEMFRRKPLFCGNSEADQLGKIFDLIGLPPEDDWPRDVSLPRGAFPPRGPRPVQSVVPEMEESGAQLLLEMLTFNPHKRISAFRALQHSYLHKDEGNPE
CDK4/cyclin D1, sequence (P24385 whole entry partner): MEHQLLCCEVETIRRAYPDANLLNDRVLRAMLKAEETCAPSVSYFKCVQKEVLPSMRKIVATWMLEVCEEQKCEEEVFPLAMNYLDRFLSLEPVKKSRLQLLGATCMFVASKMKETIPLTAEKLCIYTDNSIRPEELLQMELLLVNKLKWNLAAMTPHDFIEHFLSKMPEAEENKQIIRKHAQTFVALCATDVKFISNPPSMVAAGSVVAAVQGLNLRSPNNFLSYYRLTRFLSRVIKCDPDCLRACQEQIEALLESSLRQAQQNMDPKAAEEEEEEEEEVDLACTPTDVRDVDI
Description: CDK4/Cyclin D1 Enzymatic Activity Assay
An assay for monitoring CDK4/cyclin D1-catalyzed phosphorylation of pRb at the Ser780 site was performed using TR-FRET in a 384-well format, and was used for IC50 determination and kinetic analysis. […] 3 μM ATP was added last to initiate the reaction. The reaction was quenched with 10 μL of 240 mM EDTA-Na (pH 8.0) after 60 min incubation at 22° C.
Human CDK4/cyclin D1 was expressed in Sf21 cells via baculovirus infection.

[4] = Homo sapiens, JeKo-1 cells, p-pRb % inhibition adjusted with total pRb levels, read-out: Normalized cellular ppRb inhibition IC50
[5] = Homo sapiens, JeKo-1 cells, p-pRb Ser780 ELISA, non-normalized, read-out: Cellular ppRb inhibition IC50
[6] = 0.3 nM CDK4/cyclin D1, 150 nM biotin-pRb (773-924), 3 μM ATP, 60 min at 22° C., read-out: Biochemical CDK4 enzyme IC50
[7] = Homo sapiens, JeKo-1, JeKo-1 cells, p-pRb % inhibition adjusted with total pRb levels, read-out: Normalized cellular ppRb inhibition IC50
[8] = Homo sapiens, JeKo-1, JeKo-1 cells, p-pRb Ser780 ELISA, non-normalized, read-out: Cellular ppRb inhibition IC50

Row | Structure (SMILES) | IC50 [1, 4] | IC50 [1, 5] | IC50 [2] | IC50 [3, 6] | IC50 [1, 7] | IC50 [1, 8] | IC50 [3] | IC50 ([1]; JeKo-1 cells, p-pRb % inhibition adjusted with total pRb levels, read-out: Normalized cellular ppRb inhibition IC50) | IC50 ([1]; JeKo-1 cells, p-pRb Ser780 ELISA, non-normalized, read-out: Cellular ppRb inhibition IC50)
1 | CC(=O)N1C2CCC1CN(C(=O)c1ccc(Nc3ncc4cc(C(=O)N(C)C)n(C5CCCCCC5)c4n3)nc1)C2 [Example 8, 2-(5-(8-acetyl-3,8-diazabicyclo[3.2.1]octane-3-carbonyl)pyridin-2-ylamino)-7-cycloheptyl-N,N-dimethyl-7H-pyrrolo[2,3-d]pyrimidine-6-carboxamide] | 259 nM | 72 nM | > 15000 nM | 39 nM | – | – | – | – | –
2 | CN(C)C(=O)c1cc2cnc(Nc3ccc(C(=O)N4C[C@@H]5CN[C@@H](C5)C4)cn3)nc2n1C1CCCC1 [Example 10, 7-Cyclopentyl-2-[5-((1S,5S)-3,6-diaza-bicyclo[3.2.1]octane-3-carbonyl)-pyridin-2-ylamino]-7H-pyrrolo[2,3-d]pyrimidine-6-carboxylic acid dimethylamide] | – | – | 4140 nM | 5 nM | 25 nM | 21 nM | – | – | –
3 | CN(C)C(=O)c1cc2cnc(Nc3ccc(C(=O)N4C[C@H]5CN[C@H](C5)C4)cn3)nc2n1C1CCCC1 [Example 11, 7-Cyclopentyl-2-[5-((1R,5R)-3,6-diaza-bicyclo[3.2.1]octane-3-carbonyl)-pyridin-2-ylamino]-7H-pyrrolo[2,3-d]pyrimidine-6-carboxylic acid dimethylamide] | – | – | > 15000 nM | 9 nM | 68 nM | 39 nM | – | – | –
4 | CN(C)C(=O)c1cc2cnc(Nc3ccc(C(=O)N4CC5CC(C4)N(CC(F)(F)F)C5)cn3)nc2n1C1CCCC1 (stereo not drawn) [Example 12, 7-Cyclopentyl-2-{5-[6-(2,2,2-trifluoro-ethyl)-3,6-diaza-bicyclo[3.2.1]octane-3-carbonyl]-pyridin-2-ylamino}-7H-pyrrolo[2,3-d]pyrimidine-6-carboxylic acid dimethylamide] | 724 nM | 255 nM | > 15000 nM | 49 nM | – | – | – | – | –
5 | CN(C)C(=O)c1cc2cnc(Nc3ccc(C(=O)N4CC5CC(C4)N(C)C5)cn3)nc2n1C1CCCC1 (stereo not drawn) [Example 13, 7-Cyclopentyl-2-[5-(6-methyl-3,6-diaza-bicyclo[3.2.1]octane-3-carbonyl)-pyridin-2-ylamino]-7H-pyrrolo[2,3-d]pyrimidine-6-carboxylic acid dimethylamide] | 145 nM | 65 nM | 8440 nM | 6 nM | – | – | – | – | –
6 | CN(C)C(=O)c1cc2cnc(Nc3ccc(C(=O)N4CC5CC5(N(C)C)C4)cn3)nc2n1C1CCCC1 (stereo not drawn) [Example 17, 7-Cyclopentyl-2-[5-(1-dimethylamino-3-aza-bicyclo[3.1.0]hexane-3-carbonyl)-pyridin-2-ylamino]-7H-pyrrolo[2,3-d]pyrimidine-6-carboxylic acid dimethylamide] | 643 nM | 281 nM | > 15000 nM | 65 nM | – | – | – | – | –
7 | CN(C)C(=O)c1cc2cnc(Nc3ccc(C(=O)N4CC5CCC(C4)N5)cn3)nc2n1C1CCCC1 [Example 18, 7-Cyclopentyl-2-[5-(3,8-diaza-bicyclo[3.2.1]octane-3-carbonyl)-pyridin-2-ylamino]-7H-pyrrolo[2,3-d]pyrimidine-6-carboxylic acid dimethylamide] | – | – | 13200 nM | – | 26 to 90 nM | 12 to 37 nM | 8 to 24 nM | – | –
8 | CN(C)C(=O)c1cc2cnc(Nc3ccc(C(=O)N4C[C@@H]5C[C@H]4CN5)cn3)nc2n1C1CCCC1 [Example 19, 7-Cyclopentyl-2-[5-((S,S)-2,5-diaza-bicyclo[2.2.1]heptane-2-carbonyl)-pyridin-2-ylamino]-7H-pyrrolo[2,3-d]pyrimidine-6-carboxylic acid dimethylamide] | – | – | > 15000 nM | 5 to 8 nM | 64 to 116 nM | 54 to 55 nM | – | – | –
9 | CN(C)C(=O)c1cc2cnc(Nc3ccc(C(=O)N4CCN5CCCC5C4)cn3)nc2n1C1CCCC1 (stereo not drawn) [Example 20, 7-Cyclopentyl-2-[5-(hexahydro-pyrrolo[1,2-a]pyrazine-2-carbonyl)-pyridin-2-ylamino]-7H-pyrrolo[2,3-d]pyrimidine-6-carboxylic acid dimethylamide] | – | – | > 15000 nM | 64 nM | 452 nM | 267 nM | – | – | –
10 | CN(C)C(=O)c1cc2cnc(Nc3ccc(C(=O)N4CCN5CCC[C@@H]5C4)cn3)nc2n1C1CCCC1 [Example 21, 7-Cyclopentyl-2-[5-((R)-hexahydro-pyrrolo[1,2-a]pyrazine-2-carbonyl)-pyridin-2-ylamino]-7H-pyrrolo[2,3-d]pyrimidine-6-carboxylic acid dimethylamide] | – | – | > 15000 nM | 47 nM | 401 nM | 187 nM | – | – | –
11 | CN(C)C(=O)c1cc2cnc(Nc3ccc(C(=O)N4C5CCC4CNC5)cn3)nc2n1C1CCCC1 [Example 22, 7-Cyclopentyl-2-[5-(3,8-diaza-bicyclo[3.2.1]octane-8-carbonyl)-pyridin-2-ylamino]-7H-pyrrolo[2,3-d]pyrimidine-6-carboxylic acid dimethylamide] | – | – | > 15000 nM | – | 86 to 817 nM | 86 to 513 nM | 62 to 83 nM | – | –
12 | CNC(=O)c1cc2cnc(Nc3ccc(C(=O)N4CC5CCC(C4)N5)cn3)nc2n1C1CCCC1 [Example 23, 7-Cyclopentyl-2-[5-(3,8-diaza-bicyclo[3.2.1]octane-3-carbonyl)-pyridin-2-ylamino]-7H-pyrrolo[2,3-d]pyrimidine-6-carboxylic acid methylamide] | – | – | > 15000 nM | 1630 nM | 6770 nM | 6770 nM | – | – | –
13 | CNC(=O)c1cc2cnc(Nc3ccc(C(=O)N4C[C@@H]5C[C@H]4CN5)cn3)nc2n1C1CCCC1 [Example 24, 7-Cyclopentyl-2-[5-((S,S)-2,5-diaza-bicyclo[2.2.1]heptane-2-carbonyl)-pyridin-2-ylamino]-7H-pyrrolo[2,3-d]pyrimidine-6-carboxylic acid methylamide] | – | – | > 15000 nM | 49 nM | – | – | – | 272 nM | 266 nM
14 | CN(C)C(=O)c1cc2cnc(Nc3ccc(C(=O)N4CCC[C@@H]5CCN[C@@H]5C4)cn3)nc2n1C1CCCC1 [Example 25, 7-Cyclopentyl-2-[5-((3aR,8aS)-octahydro-pyrrolo[2,3-c]azepine-7-carbonyl)-pyridin-2-ylamino]-7H-pyrrolo[2,3-d]pyrimidine-6-carboxylic acid dimethylamide] | – | – | > 15000 nM | 8 nM | 22 nM | 20 nM | – | – | –
15 | CN(C)C(=O)c1cc2cnc(Nc3ccc(C(=O)N4CC5CCC4C5O)cn3)nc2n1C1CCCC1 (stereo not drawn) [Example 26] | 388 nM | 325 nM | > 15000 nM | 38 nM | – | – | – | – | –
